Source: PubChem BioAssay AID1963864 (Molecular Pharmacology Branch, DTP, NCI, 2024)

System: KRAS PDC multicell spheroid viability
Test: Anticancer human tumor 521955-158-R6-J3-PDC patient-derived pancreatic carcinoma cell line growth inhibition [KRAS2]
Details: for viability, T/C: stronger effect = lower value
Description: Multicellular complex tumor spheroid response to RAS pathway inhibitors in combination with a targeted agents in patient-derived cell lines with oncogenic KRAS variants from multiple cancer types
A high-throughput screen of multi-cell type tumor spheroids was designed to identify active combinations of targeted small molecules and KRAS pathway inhibitors. Complex spheroids include a stromal component modeled by human endothelial cells (HUVEC) and fibroblasts modeled by human mesenchymal stem cells (MSCs). The concentration ranges selected for each drug and investigational agent were based upon clinically achievable concentrations if the clinical Cmax of the agent was known.
Compounds. The drugs and investigational agents: BI-3406 (NSC825286), BAY-293 (NSC824723), batoprotafib (TNO155; NSC825523), sotorasib (AMG 510; NSC818433), MRTX1257 (NSC819558), elimusertib (BAY 1895344; NSC800525), molibresib (GSK525762; NSC774829), temuterkib (LY3214996; NSC803410), venetoclax (NSC766270), alisertib (NSC759677), olaparib (NSC753686), talazoparib (NSC767125), erdafitinib (NSC781556), ipatasertib (NSC767898), cabozantinib (NSC761068), nintedanib (NSC756659), abemaciclib (NSC768073), docetaxel (NSC628503), trametinib (NSC758246), and sapanisertib (NSC764658) were obtained from the National Cancer Institute (NCI) Developmental Therapeutics Program Chemical Repository. The FDA-approved anticancer drug set is available from the Developmental Therapeutics Program. […] The stock solutions were prepared in dimethyl sulfoxide (DMSO, Sigma-Aldrich, St. Louis, MO, cat. D2650) at 800-fold the tested concentration and stored at -70 degrees C prior to their use. All drugs and investigational agents were tested over a range starting from a high concentration at or near the clinical Cmax and decreasing in half-log increments. If the clinical Cmax for an agent had not been determined, the highest concentration tested was 10 microM.
Cell Culture. All cells were maintained in an incubator at 37 degrees C and 5% CO2 with 95% humidity. The PDC lines were cultured according to standard operating procedures established by the NCI PDMR (https://pdmr.cancer.gov/sops/default.htm). Briefly, all PDCs were thawed and cultured in Matrigel-coated flasks prepared with a working solution of 1X Ham's F-12 nutrient mix, without supplementation (Invitrogen, Waltham, MA, cat. 11765054), 100 U/mL penicillin-streptomycin (Invitrogen, cat. 15140122), and 2.5% Matrigel (Corning Inc., Corning, NY, cat. 354248) for the first three passages. All PDCs were cultured in complete DMEM/F-12 media containing advanced DMEM/F-12 (Invitrogen, cat. 12634028), 4.9% defined fetal bovine serum, heat inactivated (HyClone Laboratories Inc., Logan, UT, cat. SH30070.03HI), 389 ng/mL hydrocortisone (Sigma-Aldrich, cat. H4001), 9.7 ng/mL human EGF recombinant protein (Invitrogen, cat. PHG0313), 23.4 microg/mL adenine (Sigma-Aldrich, cat. A2786), 97.3 U/mL penicillin-streptomycin (Invitrogen, cat. 15140122), 1.9 mM L-glutamine (Invitrogen, cat. 25030081), and 9.7 microM Y-27632 dihydrochloride (Tocris Bioscience, Bristol, United Kingdom, cat. 1254). The PDCs were cultured in complete DMEM/F12 media without 9.7 microM Y-27632 dihydrochloride for at least two passages prior to the screen. The established cell line HOP-62 was cultured in RPMI 1640 medium, HEPES (Invitrogen, cat. 22400105) with 10% defined fetal bovine serum (HyClone Laboratories Inc., cat. SH30070.03) and 2 mM L-glutamine (Invitrogen, cat. 25030081). The pooled donor HUVEC were cultured in endothelial cell growth medium 2 (PromoCell, Heidelberg, Germany, cat. C-22011) and the hMSC were cultured in mesenchymal stem cell growth medium 2 (PromoCell, cat. C-28009). For all experiments, HUVEC and hMSC were used at passages </=5, while the malignant cell lines were used at passages </=15. […]

[1] = curve of first compound, second compound 0.1 µM
[2] = curve of first compound, second compound 0.316 µM
[3] = curve of first compound, second compound 1 µM
[4] = curve of first compound, second compound 3.16 µM
[5] = curve of first compound, second compound 10 µM
[6] = second compound 0.1 µM, first compound 0.0316 µM
[7] = second compound 0.1 µM, first compound 0.1 µM
[8] = second compound 0.1 µM, first compound 0.316 µM
[9] = second compound 0.1 µM, first compound 1 µM
[10] = second compound 0.1 µM, first compound 3.16 µM
[11] = second compound 0.1 µM, first compound 10 µM
[12] = second compound 0.316 µM, first compound 0.0316 µM
[13] = second compound 0.316 µM, first compound 0.1 µM
[14] = second compound 0.316 µM, first compound 0.316 µM
[15] = second compound 0.316 µM, first compound 1 µM
[16] = second compound 0.316 µM, first compound 3.16 µM
[17] = second compound 0.316 µM, first compound 10 µM
[18] = second compound 1 µM, first compound 0.0316 µM
[19] = second compound 1 µM, first compound 0.1 µM
[20] = second compound 1 µM, first compound 0.316 µM
[21] = second compound 1 µM, first compound 1 µM
[22] = second compound 1 µM, first compound 3.16 µM
[23] = second compound 1 µM, first compound 10 µM
[24] = second compound 3.16 µM, first compound 0.0316 µM
[25] = second compound 3.16 µM, first compound 0.1 µM
[26] = second compound 3.16 µM, first compound 0.316 µM
[27] = second compound 3.16 µM, first compound 1 µM
[28] = second compound 3.16 µM, first compound 3.16 µM
[29] = second compound 3.16 µM, first compound 10 µM
[30] = second compound 10 µM, first compound 0.0316 µM
[31] = second compound 10 µM, first compound 0.1 µM
[32] = second compound 10 µM, first compound 0.316 µM
[33] = second compound 10 µM, first compound 1 µM
[34] = second compound 10 µM, first compound 3.16 µM
[35] = second compound 10 µM, first compound 10 µM
[36] = second compound 0.1 µM, first compound 0.01 µM
[37] = second compound 0.316 µM, first compound 0.01 µM
[38] = second compound 1 µM, first compound 0.01 µM
[39] = second compound 3.16 µM, first compound 0.01 µM
[40] = second compound 10 µM, first compound 0.01 µM
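Further: drug exposure lasted seven days.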
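Wherever viability, T/C is given: 100% = DMSO vehicle wells and lower means fewer viable cells.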

## COC(=O)c1ccc2c(C(=Nc3ccc(N(C)C(=O)CN4CCN(C)CC4)cc3)c3ccccc3)c(O)[nH]c2c1
Compound 0.0316 µM
  viability, T/C: 96.5% [middle of 5 runs]
Compound 0.1 µM
  viability, T/C: 109% [middle of 5 runs]
Compound 10 µM
  viability, T/C: 0.34% [middle of 5 runs]
Curve of compound
  IC50: 3.54 µM [middle of 5 runs]

## COc1cc(Nc2ncc3c(n2)-c2ccc(Cl)cc2C(c2c(F)cccc2OC)=NC3)ccc1C(=O)O + COc1cc2nc(C)nc(NC(C)c3cc(N)cc(C(F)(F)F)c3)c2cc1OC1CCOC1
[1]
  IC50: > 10 µM
[2]
  IC50: > 10 µM
[3]
  IC50: > 10 µM
[4]
  IC50: > 10 µM
[5]
  IC50: < 0.0316 µM
[6]
  viability, T/C: 102%
[7]
  viability, T/C: 88.3%
[8]
  viability, T/C: 89%
[9]
  viability, T/C: 88.9%
[10]
  viability, T/C: 97.1%
[11]
  viability, T/C: 90.4%
[12]
  viability, T/C: 93.4%
[13]
  viability, T/C: 86.3%
[14]
  viability, T/C: 87.4%
[15]
  viability, T/C: 99.2%
[16]
  viability, T/C: 96.8%
[17]
  viability, T/C: 88.6%
[18]
  viability, T/C: 80.7%
[19]
  viability, T/C: 84.4%
[20]
  viability, T/C: 87.7%
[21]
  viability, T/C: 89.3%
[22]
  viability, T/C: 95.3%
[23]
  viability, T/C: 83.4%
[24]
  viability, T/C: 76%
[25]
  viability, T/C: 72.5%
[26]
  viability, T/C: 82.1%
[27]
  viability, T/C: 78.5%
[28]
  viability, T/C: 80.6%
[29]
  viability, T/C: 71.2%
[30]
  viability, T/C: 68.9%
[31]
  viability, T/C: 23.1%
[32]
  viability, T/C: 30%
[33]
  viability, T/C: 31.2%
[34]
  viability, T/C: 56.8%
[35]
  viability, T/C: 23%

## CC1OCC2(CCN(c3cnc(Sc4ccnc(N)c4Cl)c(N)n3)CC2)C1N (centres undefined) + COc1cc2nc(C)nc(NC(C)c3cc(N)cc(C(F)(F)F)c3)c2cc1OC1CCOC1
[1]
  IC50: > 10 µM
[2]
  IC50: > 10 µM
[3]
  IC50: > 10 µM
[4]
  IC50: > 10 µM
[5]
  IC50: < 0.0316 µM
[6]
  viability, T/C: 90.6%
[7]
  viability, T/C: 82.6%
[8]
  viability, T/C: 74.8%
[9]
  viability, T/C: 86.5%
[10]
  viability, T/C: 116%
[11]
  viability, T/C: 114%
[12]
  viability, T/C: 82.6%
[13]
  viability, T/C: 86.1%
[14]
  viability, T/C: 96.8%
[15]
  viability, T/C: 87.5%
[16]
  viability, T/C: 112%
[17]
  viability, T/C: 118%
[18]
  viability, T/C: 78%
[19]
  viability, T/C: 82.1%
[20]
  viability, T/C: 85%
[21]
  viability, T/C: 83.7%
[22]
  viability, T/C: 103%
[23]
  viability, T/C: 124%
[24]
  viability, T/C: 76.5%
[25]
  viability, T/C: 79.7%
[26]
  viability, T/C: 77.2%
[27]
  viability, T/C: 76.9%
[28]
  viability, T/C: 99.2%
[29]
  viability, T/C: 94.6%
[30]
  viability, T/C: 43.7%
[31]
  viability, T/C: 34%
[32]
  viability, T/C: 35.8%
[33]
  viability, T/C: 27.1%
[34]
  viability, T/C: 34.1%
[35]
  viability, T/C: 18%

## CC1COCCN1c1cc(-c2ccnn2C)c2ccnc(-c3ccn[nH]3)c2n1 (centres undefined) + CNCc1ccccc1-c1csc(C(C)Nc2nc(C)nc3cc(OC)c(OC)cc23)c1
[1]
  IC50: > 3.16 µM
[2]
  IC50: > 3.16 µM
[3]
  IC50: > 3.16 µM
[4]
  IC50: < 0.01 µM
[5]
  IC50: < 0.01 µM
[36]
  viability, T/C: 83.9%
[6]
  viability, T/C: 90.4%
[7]
  viability, T/C: 80.4%
[8]
  viability, T/C: 76.2%
[9]
  viability, T/C: 64.4%
[10]
  viability, T/C: 81.2%
[37]
  viability, T/C: 79.5%
[12]
  viability, T/C: 70.4%
[13]
  viability, T/C: 71%
[14]
  viability, T/C: 57.9%
[15]
  viability, T/C: 69.3%
[16]
  viability, T/C: 68.4%
[38]
  viability, T/C: 68.6%
[18]
  viability, T/C: 63.3%
[19]
  viability, T/C: 58.1%
[20]
  viability, T/C: 47.3%
[21]
  viability, T/C: 55.1%
[22]
  viability, T/C: 63.7%
[39]
  viability, T/C: 0.45%
[24]
  viability, T/C: 0.29%
[25]
  viability, T/C: 1.4%
[26]
  viability, T/C: 0.26%
[27]
  viability, T/C: 0.42%
[28]
  viability, T/C: 0.43%
[40]
  viability, T/C: 0.19%
[30]
  viability, T/C: 0.19%
[31]
  viability, T/C: 0.21%
[32]
  viability, T/C: 0.16%
[33]
  viability, T/C: 0.17%
[34]
  viability, T/C: 0.3%

## CN(C)C/C=C/C(=O)Nc1cc2c(Nc3ccc(F)c(Cl)c3)ncnc2cc1O[C@H]1CCOC1 + CNCc1ccccc1-c1csc(C(C)Nc2nc(C)nc3cc(OC)c(OC)cc23)c1
[1]
  IC50: > 0.1 µM
[2]
  IC50: > 0.1 µM
[3]
  IC50: > 0.1 µM
[4]
  IC50: 0.00198 µM
[5]
  IC50: < 0.000316 µM
Second compound 0.1 µM, first compound 0.000316 µM
  viability, T/C: 82.2%
Second compound 0.1 µM, first compound 0.001 µM
  viability, T/C: 77.5%
Second compound 0.1 µM, first compound 0.00316 µM
  viability, T/C: 79.8%
[36]
  viability, T/C: 81.3%
[6]
  viability, T/C: 55%
[7]
  viability, T/C: 53.6%
Second compound 0.316 µM, first compound 0.000316 µM
  viability, T/C: 82.9%
Second compound 0.316 µM, first compound 0.001 µM
  viability, T/C: 77.8%
Second compound 0.316 µM, first compound 0.00316 µM
  viability, T/C: 64.8%
[37]
  viability, T/C: 71.9%
[12]
  viability, T/C: 58.3%
[13]
  viability, T/C: 56.7%
Second compound 1 µM, first compound 0.000316 µM
  viability, T/C: 98.4%
Second compound 1 µM, first compound 0.001 µM
  viability, T/C: 68.2%
Second compound 1 µM, first compound 0.00316 µM
  viability, T/C: 59.1%
[38]
  viability, T/C: 50.7%
[18]
  viability, T/C: 50.8%
[19]
  viability, T/C: 53%
Second compound 3.16 µM, first compound 0.000316 µM
  viability, T/C: 94.9%
Second compound 3.16 µM, first compound 0.001 µM
  viability, T/C: 106%
Second compound 3.16 µM, first compound 0.00316 µM
  viability, T/C: 0.33%
[39]
  viability, T/C: 0.98%
[24]
  viability, T/C: 58.9%
[25]
  viability, T/C: 2.28%
Second compound 10 µM, first compound 0.000316 µM
  viability, T/C: 0.34%
Second compound 10 µM, first compound 0.001 µM
  viability, T/C: 0.24%
Second compound 10 µM, first compound 0.00316 µM
  viability, T/C: 0.21%
[40]
  viability, T/C: 0.52%
[30]
  viability, T/C: 0.26%
[31]
  viability, T/C: 0.44%
